According to a melting point compilation (Tetko et al.; mined from patent text by program, amines drawn as free bases though some values may be those of a salt):

melting point	SMILES
55 to 65 °C	COc1cc2cc(C(=O)Nc3cc(OCc4ccccc4)c4ccccc4c3CCOC(C)=O)[nH]c2c(OC)c1OC
106 to 107 °C	CC(ON=Cc1c(F)cccc1Cl)C(=O)O (configuration not stated)
151 to 158 °C	COc1ccc2[nH]cc(CCCN(C3CCC3)C3COc4c(F)ccc(C(N)=O)c4C3)c2c1 (configuration not stated)
182 to 185 °C	Cn1cc(-c2cc3cccnc3[nH]2)c2cc(OCC(O)CO)ccc21 (configuration not stated)
157 to 158 °C	CC(C)(C)OC(=O)Nc1ccc(C#Cc2ccc(F)cc2)cc1[N+](=O)[O-]
75 to 93 °C	CC1CCCC(C)C1NSc1nc2ccccc2s1 (configuration not stated)
287 to 289 °C	COc1cc2c3c(nc4ccc(Cl)cc4c3c1)-c1ccc(Cl)cc1N2C
288 to 290 °C	Clc1cc2c(oc3c(Cl)c(Br)c(Cl)c(Br)c32)c(Br)c1Br
88 to 91 °C	O=C1N=NC(=O)N1c1c(F)c(F)c(F)c(F)c1F
150 to 151 °C	CC1CC(c2cccc(Cl)c2)=NNC1=O (configuration not stated)
182 to 184 °C	COC1=CC(=O)c2c(c(CO)cn2C)C1=O
182 to 185 °C	CC(=O)N1CCN(c2cc3nc(C(C)(C)C)sc3cc2N)CC1
103 to 105 °C	COc1ccccc1SC1CC(=O)N1 (configuration not stated)
103 to 104 °C	COc1ccc(CN2C(=O)CCC2C(=O)O)cc1 (configuration not stated)
181 °C	Cc1ccc(C(=O)c2ccc3[nH]c(=O)nc(-c4cccc(Cl)c4)c3c2)cc1
143 to 146 °C	O=C(c1ccccc1)c1ccc(NC(=O)C(O)(C(F)(F)F)C(F)(F)F)cc1
147 to 149 °C	C[C@@H](S[C@H]1CO[C@H](/C=C/C=C/c2ccc(C#N)cc2)OC1)[C@](O)(Cn1cncn1)c1ccc(F)cc1F
153 to 155 °C	CCC(=O)Nc1c(C)nn(C)c1C#N
132 °C	CC(C)CNC(=O)c1ccc(C2(F)CC2c2ccc(Br)c(Br)c2)cc1 (configuration not stated)
200 to 202 °C	c1ccc(-c2cn3cccnc3n2)cc1
235 to 237 °C	O=C(Nc1ccc(O)cc1O)c1cc(Cl)c(O)c(Cl)c1
107 to 109 °C	O=C(O)C=Cc1cccc(Oc2ccccc2)c1

melting point	SMILES
169 to 170 °C	CC(=O)n1c(=O)n(-c2ccccc2)c(=O)n1C(C)=O
161 to 164 °C	O=C(O)c1ccc(Oc2ccc(Cl)cc2)cc1
226 to 232 °C	Cn1ncnc1-c1cc(S(C)(=O)=O)c2[nH]c(=O)ccc2c1
97 to 99 °C	COC(=O)C1=Cc2cccc(C(F)F)c2OCC1
89 to 90 °C	CN1CCN(c2nc3ccccc3nc2Cc2ccccc2)CC1
272 to 274 °C	Nc1ccc2c(c1)ncn2-c1ccccc1
256 to 257 °C	Cc1c(-c2ccncc2)[nH]c2c1C(=O)CC(c1ccccc1)C2 (configuration not stated)
139 to 142 °C	CN1C(=O)[C@](C)(C(=O)O)Oc2ccccc21
194 to 196 °C	Cc1cc(C)n2nc(S(=O)(=O)Nc3c(F)cccc3F)c(Cl)c2n1
68 to 71 °C	CCCCCCCc1ccc(CCCC(N)(CO)CCO)cc1 (configuration not stated)
37 to 38 °C	CCOc1cc(C(=O)CCCC2CCCCC2)c(OC)cc1C
208 to 210 °C	CC(C)(C)OC(=O)N1CCn2c(-c3ccccc3)cc(C(N)=O)c2C1
225 to 226 °C	CC1CSC2=C(O1)c1cc(N3CCCCC3)ccc1C(=O)C2=O (configuration not stated)
263 to 265 °C	NC(=O)c1cccc(-c2ccc3nnn(Cc4ccc5ncccc5c4)c3n2)c1
120 to 121 °C	Fc1cccc(Cl)c1-c1cc(Cl)n(-c2ccc(COc3ncc(C(F)(F)F)cc3Cl)cc2)n1
66 to 68 °C	OC(CCl)c1ccc(-c2ccc(SC(F)F)cc2)cc1 (configuration not stated)
174 to 176 °C	Cc1ccc(S(=O)(=O)NC(=O)Nc2ccc(Cl)cc2)cc1
118 to 119 °C	O=C1NCC(Cc2ccc(Oc3ccccc3)cc2)O1 (configuration not stated)
225 to 227 °C	O=C(O)c1ncn2c1Cn1ccnc1-c1sccc1-2
134 to 135 °C	COc1ccc(N2CCN(c3c(C)c(C)c4c(c3C)C(N3CCCCC3)C(C)(C)O4)CC2)cc1OC (configuration not stated)
229 to 232 °C	CC(O)(c1ccncc1)c1cnc(-c2ccc(F)cc2)s1 (configuration not stated)
112 to 113 °C	CC(C)(C)OCC1CN(c2ccc3ccccc3c2)C(=O)O1 (configuration not stated)

melting point	SMILES
252 to 254 °C	Cc1[nH]c(C(=O)SCC(=O)O)nc1-c1cc(C(C)(C)C)c(O)c(C(C)(C)C)c1
72.5 to 74 °C	CCCCCCCCCC(C)NC(=O)C=C(C)c1cccc([N+](=O)[O-])c1 (configuration not stated)
128 to 132 °C	O=C(OCc1cc(-c2ccc(F)cc2F)ccc1O)c1cc(O)c2c(c1)C(=O)c1cccc(O)c1C2=O
186 to 187 °C	Clc1ccc(-c2cc(C3CCN(CC4CCCCC4)CC3)n[nH]2)cc1
192 to 193 °C	CCCCSc1cc(C(=O)O)cc(S(N)(=O)=O)c1Sc1ccccc1
126 to 128 °C	CC(C)(C)COc1c(-c2ccc(S(C)(=O)=O)cc2)cnn(-c2ccc(F)c(F)c2)c1=O
108 to 109 °C	CC(=O)C(=NNc1cccc(C(F)(F)F)c1)C(C)=O
91 to 93 °C	CC(=O)NC(=O)C(C)SC(C)=O (configuration not stated)
118 to 120 °C	CCC(COC)NC(=O)C(Cc1ccc(OCc2ccccc2)cc1)NC(=O)C(CC(C)C)N(C)Cc1ccc(C(C)(C)C)cc1 (configuration not stated)
203 to 204 °C	CNC(C(=O)NC(N)=O)C(=S)c1cccc2c(C(F)(F)F)c(OC)ccc12 (configuration not stated)
128 to 129 °C	CCC(CC)(CC(=O)Nc1cccc(OCc2ccc3cccc(F)c3n2)c1)C(=O)O
122 to 123 °C	CCOC(=O)c1cc(OC)c(OCc2nc(C)c(C)nc2C)c(OC)c1
132 to 134 °C	C=CCOc1ccc(COc2ccc(CC(=O)O)cc2Cl)cc1Cl
113 °C	N#CCN1CC[C@@H](NCc2ccccc2)[C@H](O)C1 (relative stereo)
126 to 127 °C	O=C1CCN(Cc2ccc(C(F)(F)F)cc2)CC1C(c1ccc(F)cc1)c1ccc(F)cc1 (configuration not stated)
133 to 135 °C	O=C1NC(=O)[C@@]2(C[C@@H](C(=O)NCCN3CCN(CC=Cc4ccccc4)CC3)Oc3ccc(F)cc32)N1
138 °C	O=C(C=Cc1ccccc1)CC(=O)C=Cc1ccccc1
129 to 131 °C	CCOC(=O)C=CC=CCCC(C)C1CCC2C3CCC4CC(OC(C)=O)CCC4(C)C3CC(OC(C)=O)C12C (configuration not stated)
195 to 198 °C	COC(=O)c1ccc(Cn2ncc3ccc(NC(=O)CC4CCCC4)cc32)c(OC)c1
236 °C	CN1CCC(C(=O)Nc2cccc(-c3ccnc4c(C(=O)c5cccs5)cnn34)c2)CC1

SMILES	melting point
CN1CCCN=C1C(Cl)(Cl)[N+](=O)[O-]	92 to 93 °C
CC(C)N(C(=O)CN1C(=O)CC(=O)N(c2ccccc2)c2ccccc21)c1ccccc1	199 to 200 °C
C=CC(C)(C)CC(NC(=O)c1ccc(Cl)cc1)NC(=N[N+](=O)[O-])Nc1cccnc1 (configuration not stated)	186 °C
N#Cc1nn(-c2c(Cl)cc(C(F)(F)F)cc2Cl)c(C(=O)C(F)F)c1Cl	124 to 125 °C
CN(C)C1(c2ccccc2)CCC(C(=O)c2cc3ccccc3n2C)(N2CCCC2)CC1 (configuration not stated)	212 to 218 °C
CN1CCc2c(cccc2NC(=O)c2ccccc2I)C1	215 to 216 °C
CC12OCC(CO)(CO1)CO2	110 to 112 °C
O=[N+]([O-])c1ccc(-c2cccc(-c3cn([C@H]4CN5CCC4CC5)nn3)c2)cn1	180 °C
